From US20120196927A1, “PROPHYLACTIC AND/OR THERAPEUTIC AGENT FOR METABOLIC SYNDROME” (priority 2009, published 2012)
Each block holds one compound with its values, some of them ahead of it.

Legend:
C57BL/6 male mice [1] = test: Tangeretin, obesity-induced mice: blood glucose in fasting state; assay type: in vivo, mouse; details: tangeretin 200 mg/kg/day p.o., HFD
Method: The blood glucose level was measured as the same as that of the example 1. […] As mentioned above, it was shown that tangeretin has the inhibition effects of the blood glucose level in the fasting state when the high fat diet was ingested.

C57BL/6 male mice [2] = test: Tangeretin, obesity-induced mice: tissue weight; assay type: in vivo, mouse; details: HFD obesity-induced mice, tangeretin 200 mg/kg/day p.o. 5 weeks
Description: (§1) Six week age of C57BL/6 male mice were preliminary kept for 1 week (−9 to −8 week), and then classified into three groups. […] was given to one group, and HFD was given to other two groups, for 8 weeks (−8 to +5 week). From 8 weeks (15 week age) to 13 weeks, the following agents were given to each group for 5 weeks per os (hereinafter, they were referred to as LFD administration group and HFD administration group in the Example 6). The compositions of the LFD or HFD were the same as those in the Example 3.
(§2) To the LFD administration group (n=8) and the HFD administration group (n=11), 0.3% CMC aqueous solution was given at the amount of 0.01 mL/g of the body weight. […] The schedule of the feed ingestion and the agent administration of the above-mentioned 3 groups were schematically shown in FIG. 12A.
After the completion of the experiment, the mice in each group were dissected to excise organs and so forth to measure their weight. The white adipose tissue was excised from retroperitoneum and periphery of epididymis.

C57BL/6 male mice [3] = test: Tangeretin, obesity-induced mice: oral glucose tolerance test (OGTT); assay type: in vivo, mouse; details: tangeretin 200 mg/kg/day p.o., HFD
Method: The oral glucose tolerance test (OGTT) was carried out as the same as that in the example 1.

[4] = test system: GLUT4 gene and PPARγ gene; test: Tangeretin, obesity-induced mice: mRNA expression of GLUT4 and PPARγ (real time RT-PCR); assay type: in vivo, mouse; details: HFD = 1, tangeretin 200 mg/kg/day p.o. 5 weeks
Method: mRNA expression level was determined by using real time PCR as follows. According to the direction attached with ISOGEN (Nippon Gene Co., Ltd), RNA was extracted from white adipose tissue, liver, and skeletal muscle. Next, cDNA was prepared from 1 μg of RNA by using Reverse Transcription System kit (Promega, USA). Subsequently, according to the direction attached with FastStart universal SYBR (Registered trademark) Greenmaster PCR kit reagent (Roche Diagnostics, Germany), primers suitable for each intended gene in the following experiments were synthesized. Real time PCR system 7700 HT (Applied Biosytems, USA) was used for the measurement, the cDNA was used as templates for the real time PCR. Reaction conditions were followed to those for the PCR kit reagents. Quantitative analysis of RNA level was performed by Comparison Ct method, using glyceraldehyde 3-phosphate dehydrogenase (GAPDH) as the standard.
As the same as that in the Example 1, after the completion of the experiment, the white adipose tissue was excised to determine the both mRNA expression levels of GLUT4 gene mRNA and PPARγ gene by using the real time RT-PCR. Ratios of the expression levels when that of the HFD is 1 were shown in the table 18 and FIGS. 11A and 11B.

C57BL/6 male mice [5] = test: Tangeretin, obesity-induced mice: body weight gain and ingestion amount; assay type: in vivo, mouse; details: HFD obesity-induced C57BL/6 mice
Description: as §1, §2
The ingestion amount of the mice in each group was measured twice a week. The ingestion amounts in 24 hours/3 mice/cage were measured and obtained as mean average of each group for 5 weeks.

C57BL/6 male mice [6] = test: Tangeretin, obesity-induced mice: blood TG and T-CHO level; assay type: in vivo, mouse; details: fasting, tangeretin 200 mg/kg/day p.o., HFD
Method: After the completion of the experiment, blood neutral fat level in fasting state was measured at the time points of beginning of the experiment, two and five weeks after the administration.
The blood neutral fat (TG) level was measured as the same as that employed in the example 1.
The total cholesterol (T-CHO) level in blood was measured as the same as that in the Example.

C57BL/6J-ob/ob mice [7] = test: Diabetes model mice: fasting blood glucose level; assay type: in vivo, mouse; details: nobiletin 200 mg/kg/day, Pioglitazone 30 mg/kg/day p.o.
Method: Two weeks or 5 weeks from the beginning of the administration, the fasting blood glucose was measured (n=10). The measurement of the blood glucose level was carried out as the same as that of the example 1.

C57BL/6J-ob/ob mice [8] = details: nobiletin 200 mg/kg/day, Pioglitazone 30 mg/kg/day, 5 weeks
Description: (§6) Diabetes model mice and the experimental system were as follows. As the diabetes model mice, 7 week age of male C57BL/6J-ob/ob (hereinafter, it was referred to as “ob/ob”) were purchased from Charles River Laboratories Japan Inc., and used as 10 mice/group.
For the negative control group (from FIGS. 5 to 10, it was shown as Vehicle; hereinafter, it is referred to as “solvent administration group”), 0.3% of CMC aqueous solution was administrated orally for 5 weeks in everyday at the dosage of 0.01 mL/g body weight. For the positive control group (in FIGS. 5 to 10 and hereinafter, it was referred to as “P30 administrated group”), 3 mg of Pioglitazone was suspended in 0.3% CMC aqueous solution so as to be orally administrated at the dosage of 0.01 mL/g body weight for 5 weeks in everyday (dosage: 30 mg/kg body weight/day). […]
The blood insulin level was measured as described in below. […] As lipids in plasma, concentrations of neutral fat (TG) and total cholesterol (T-CHO) were measured. Plasma insulin level was measured by using rebis insulin mouse (type U) (Shibayagi Co. Ltd.) based on the enzyme-immunoassay.

C57BL/6J-ob/ob mice [9] = test: Diabetes model mice: oral glucose tolerance test (OGTT); assay type: in vivo, mouse; details: nobiletin 200 mg/kg/day, Pioglitazone 30 mg/kg/day
Method: The oral glucose tolerance test (OGTT) for the diabetes model mice (ob/ob) to which the nobiletin and others were administrated was subjected to the glucose tolerance test for studying the effects.
From 4 weeks after the start of the administration, the mice in each group were fasted for 16 hours, and then they were administrated 2 g/kg body weight of glucose per os. After the administration of glucose, […] of blood was collected from the tail vein at the time point of 0, 30, 60 and 120 minutes. Collected blood was centrifuged at 4° C., 3,000×g, for 15 minute to obtain plasma (n=10). The blood glucose level was measured as the same as that described in the example 1.

[10] = test system: gluconeogenesis-related genes PEPCK, G6Pase; test: Diabetes model mice: mRNA expression in the liver (real time RT-PCR); assay type: in vivo, mouse; details: ob/ob mice, Vehicle = 1.00, nobiletin 200 mg/kg/day, Pioglitazone 30 mg/kg/day, 5 weeks
Method: (§3) The effects by nobiletin ingestion to the mRNA expression in the white adipose tissue and the liver were measured (n=10).
(§4) After the termination of the administration period for 5 weeks, mRNA expression levels of respective genes shown in the table 10 were determined by using real time RT-PCR method. The real time RT-PCR was carried out according to an operation manual provided by ISOGEN (NIPPON GENE CO., LTD); RNA was extracted from the white adipose tissue and the liver. Next, cDNA was prepared from using 1 μg of RNA by using Reverse Transcription System kit (Promega Corp., USA). Next, suitable primers for the above-mentioned genes were prepared according to the operation manual provided by FastStart universal SYBR (a registered trademark) Greenmaster PCR KIT agent (Roche Diagnostics K. K., Germany).
(§5) Real time PCR system 7700HT (Applied Biosytems, USA) was used for the determination to carry out the real time PCR by using the cDNAs as templates. Each reaction conditions were set according to the manual of the PCR KIT. Quantitative analysis of the RNA amount was carried out based on comparative Ct method by using glyceraldehyde 3-phosphate dehydrogenase (GAPDH) as the standard reference.

GLUT4 protein = test: Diabetes model mice: GLUT4 protein expression level (Western blotting); assay type: in vivo, mouse; details: ob/ob mice, nobiletin 200 mg/kg/day, Pioglitazone 30 mg/kg/day
Method: After finishing the experiment, the white adipose tissue and skeletal muscle were excised according to that described in the example 1, protein expression level of GLUT 4 were detected by using Western blotting method. The expression levels of GLUT4 protein were determined by using Na^+/K^+ ATPase α-1 protein as an internal reference.

[11] = test system: GLUT4, Adiponectin, TNF-α, MCP-1, IL-6, PPARγ, aP2, LPL, Perilipin genes; test: Diabetes model mice: mRNA expression in the white adipose tissue (real time RT-PCR); assay type: in vivo, mouse; details: ob/ob mice, Vehicle = 1.00, nobiletin 200 mg/kg/day, Pioglitazone 30 mg/kg/day, 5 weeks
Method: as §3, §4, §5

C57BL/6J-ob/ob mice [12] = assay type: in vivo, mouse; details: p.o. daily 5 weeks, nobiletin 200 mg/kg/day (No200), Pioglitazone 30 mg/kg/day (P30)
Description: as §6
For the negative control group (from FIGS. 5 to 10, it was shown as Vehicle; hereinafter, it is referred to as “solvent administration group”), 0.3% of CMC aqueous solution was administrated orally for 5 weeks in everyday at the dosage of 0.01 mL/g body weight. For the positive control group (in FIGS. 5 to 10 and hereinafter, it was referred to as “P30 administrated group”), 3 mg of Pioglitazone was suspended in 0.3% CMC aqueous solution so as to be orally administrated at the dosage of 0.01 mL/g body weight for 5 weeks in everyday (dosage: 30 mg/kg body weight/day).
For the sample ingestion group (in FIGS. 5 to 10 and hereinafter, it is referred to as “No200 ingestion group”), 20 mg of nobiletin purified as mentioned above (1) was suspended in 0.3% of carboxymethylcellulose (CMC) aqueous solution so as to be orally administrated at the dose of 0.01 mL/g body weight for 5 weeks in everyday (the dose: 200 mg/kg/day).
The body weight of mice, ingestion amount, weight of the white adipose tissue and liver weight of each mice were measured as the same as described in the example 3.

[13] = Western blotting, Vehicle = 1.00, 5 weeks

Tissue Weight, Kidney (C57BL/6 male mice [2]): 0.31 ± 0.01 g/100 g of body weight
Tissue Weight, Liver (C57BL/6 male mice [2]): 1.48 ± 0.11 g/100 g of body weight
Compound: COc1ccc(-c2cc(=O)c3c(OC)c(OC)c(OC)c(OC)c3o2)cc1 [tangeretin]
Blood glucose level (fasting state) (C57BL/6 male mice [1]; time after administration 0 (head prints min.)): 142.82 ± 7.03 mg/dL
Blood glucose level (fasting state) (C57BL/6 male mice [1]; time after administration 2 (head prints min.)): 164.79 ± 9.82 mg/dL
Blood glucose level (fasting state) (C57BL/6 male mice [1]; time after administration 5 (head prints min.)): 124.75 ± 7.14 mg/dL
Tissue weight, Epididymis white adipose tissue (C57BL/6 male mice [2]): 0.99 ± 0.12 g/100 g of body weight
Tissue weight, Retroperitoneum white adipose tissue (C57BL/6 male mice [2]): 2.38 ± 0.09 g/100 g of body weight
Tissue weight, White adipose tissue in total (C57BL/6 male mice [2]): 3.38 ± 0.16 g/100 g of body weight
Blood glucose level (OGTT) (C57BL/6 male mice [3]; 0 min after glucose): 124.75 ± 7.14 mg/dL
Blood glucose level (OGTT) (C57BL/6 male mice [3]; 15 min after glucose): 347.43 ± 11.82 mg/dL
Blood glucose level (OGTT) (C57BL/6 male mice [3]; 30 min after glucose): 309.73 ± 17.88 mg/dL
Blood glucose level (OGTT) (C57BL/6 male mice [3]; 60 min after glucose): 274.14 ± 19.04 mg/dL
Blood glucose level (OGTT) (C57BL/6 male mice [3]; 120 min after glucose): 265.19 ± 15.82 mg/dL
Expression level (ratio), [M]GLUT4 ([4]; skeletal muscle mRNA): 1.72
Expression level (ratio), [W]GLUT4 ([4]; white adipose tissue mRNA): 0.42
Expression level (ratio), [W]PPARγ ([4]; white adipose tissue mRNA): 0.43
Body weight gain (C57BL/6 male mice [5]; tangeretin 200 mg/kg/day p.o. 5 weeks (HFD+T200)): 3.94 ± 0.45 g
Ingestion amount (C57BL/6 male mice [5]; tangeretin 200 mg/kg/day p.o., mean of 5 weeks): 2.47 ± 0.24 g/day
Blood TG level (C57BL/6 male mice [6]; 0 weeks after administration): 108.70 ± 7.75 mg/dL
Blood TG level (C57BL/6 male mice [6]; 2 weeks after administration): 107.89 ± 9.46 mg/dL
Blood TG level (C57BL/6 male mice [6]; 5 weeks after administration): 105.42 ± 7.54 mg/dL

Compound: CCc1ccc(CCOc2ccc(CC3SC(=O)NC3=O)cc2)nc1 (stereo not shown) [Pioglitazone, reference compound]
Blood glucose level (fasting) (C57BL/6J-ob/ob mice [7]; 0 week after administration): 183.61 ± 16.51 mg/dL
Blood glucose level (fasting) (C57BL/6J-ob/ob mice [7]; 2 weeks after administration): 132.50 ± 7.86 mg/dL
Blood glucose level (fasting) (C57BL/6J-ob/ob mice [7]; 5 weeks after administration): 144.67 ± 8.96 mg/dL
Adiponectin level in blood, times higher than solvent administration group (C57BL/6J-ob/ob mice [8]): ≥ 2.5 times
Blood glucose level (OGTT) (C57BL/6J-ob/ob mice [9]; 0 min after 2 g/kg glucose p.o.): 144.67 ± 8.96 mg/dL
Blood glucose level (OGTT) (C57BL/6J-ob/ob mice [9]; 30 min after 2 g/kg glucose p.o.): 273.55 ± 14.15 mg/dL
Blood glucose level (OGTT) (C57BL/6J-ob/ob mice [9]; 60 min after 2 g/kg glucose p.o.): 170.60 ± 4.45 mg/dL
Blood glucose level (OGTT) (C57BL/6J-ob/ob mice [9]; 120 min after 2 g/kg glucose p.o.): 175.79 ± 18.06 mg/dL
Gene expression level (ratio), [L]G6Pase [10]: 0.23 ± 0.04
Gene expression level (ratio), [L]PEPCK [10]: 0.57 ± 0.01
Gene expression level (ratio), Skeletal muscle (GLUT4 protein) (GLUT4 protein; [13]): 3.15
Gene expression level (ratio), White adipose tissue (GLUT4 protein) (GLUT4 protein; [13]): 2.24
GLUT4 protein expression amount in the skeletal muscle, times higher than vehicle administration group (GLUT4 protein): ~3 times
GLUT4 protein expression level in the white adipose tissue, times higher than vehicle administration group (GLUT4 protein): 2.2 times
Gene expression level (ratio), [W]Adiponectin [11]: 1.58 ± 0.02
Gene expression level (ratio), [W]GLUT4 [11]: 1.15 ± 0.02
Gene expression level (ratio), [W]IL-6 [11]: 0.19 ± 0.12
Gene expression level (ratio), [W]LPL [11]: 0.93 ± 0.04
Gene expression level (ratio), [W]MCP-1 [11]: 0.44 ± 0.10
Gene expression level (ratio), [W]PPARγ [11]: 1.13 ± 0.02
Gene expression level (ratio), [W]Perilipin [11]: 1.37 ± 0.13
Gene expression level (ratio), [W]TNF-α [11]: 1.08 ± 0.01
Gene expression level (ratio), [W]aP2 [11]: 2.03 ± 0.01
Gained body weight (C57BL/6J-ob/ob mice [12]): 10.83 ± 0.58 g
white adipose tissue (C57BL/6J-ob/ob mice [12]): 5.70 ± 0.17 g
